Data from patent US11052118B2, “Enhanced stem cell composition” (Fate Therapeutics, Inc., priority 2011, dated 2021).

Columns and labels:
[1] = system: CXCR4 mRNA in human umbilical cord blood derived CD34+ cells; assay: CXCR4 qPCR using the Fluidigm platform; assay type: cell-based; conditions: 10 μM single agent in SFEM, 4 h, 37° C., compared to DMSO treated cells
Method: Real-time PCR transcript quantitation of gene expression from ex vivo treated human umbilical cord blood derived CD34^+ cells (Stem Cell Technologies, Vancouver, BC, Canada) was performed using the BioMark Dynamic Array microfluidics system (Fluidigm Corporation, South San Francisco, Calif., USA).
CD34^+ cells derived from cord blood or mobilized peripheral blood were treated in Serum-Free Expansion Medium (SFEM; e.g., StemSpan® from StemCell Technologies, Inc.) for four hours at 37° C., 5% CO2 with 10 uM prostaglandin pathway agonist alone or in combination with 10 uM of a glucocorticoid. Prostaglandin pathway agonists included 16,16-dimethyl PGE2 (dmPGE2), 20-ethyl PGE2 (ePGE2), 15(S)-15-methyl PGE2 (mPGE2), and PGE2. Glucocorticoids included hydrocortisone, dexamethasone, medrysone, alclometasone, or triamcinalone. After treatment, cells were washed with SFEM and centrifuged at 300 g for 10 minutes.
Total RNA was isolated then isolated from treated cells using Pico Pure RNA Isolation Kit (Molecular Devices, Sunnyvale, Calif., USA). […]
Results were analyzed using BioMark Real-Time PCR Analysis software. Average Cts were calculated from the sample replicates and delta-delta Cts (ΔΔCt) were calculated using the mean of 3 reference genes (GAPDH, HPRT1, QARS) against a vehicle only sample. […]

[2] = system: CXCR4 mRNA in cord blood derived CD34+ cells; assay: CXCR4 qPCR using the Applied Biosystems StepOnePlus, cord blood CD34+ cells; assay type: cell-based, human
Method: (§1) Real-time PCR transcript quantitation from ex vivo treated cord CD34^+ cells (Stem Cell Technologies, Vancouver, BC, Canada) and mobilized peripheral blood CD34^+ cells (All Cells, LLC, Emoryville, Calif., USA) was performed using the Applied Biosystems StepOne Plus system (Life Technologies Corporation, Carlsbad, Calif., USA) (see FIG. 3). […] After treatment, cells were washed with SFEM and centrifuged at 300 g for 10 minutes.
(§2) Total RNA was then isolated from treated cells using Pico Pure RNA Isolation Kit (Molecular Devices, Sunnyvale, Calif., USA). Complimentary DNA (cDNA) was reverse transcribed from 50 ng of isolated total RNA using the High-Capacity cDNA Reverse Transcription Kit (Life Technologies).
(§3) Real-Time PCR analysis was run on the cDNA samples in duplicate. The reaction mix contained 1 μL Gene Specific Taqman Assay (20λ) and 10 μL Gene Expression Master Mix (Life Technologies) with the remaining volume of 9 μL contained 10 ng cDNA and sterile diH2O.
(§4) CXCR4 results (assay from Table 1) were analyzed using Applied Biosystems StepOne Software v2.1 Analysis software. Average Cts were calculated from the sample replicates and delta-delta Cts (ΔΔCt) were calculated using GAPDH results (assay from Table 1) as a reference gene against a vehicle only sample. […] Error bars depict +/− the Standard Deviation (SD) of the replicate measurements (See FIGS. 1-3, 5, and 6).

[3] = system: CXCR4 surface protein on CD34+ cells from human bone marrow; assay: CXCR4 surface protein expression by flow cytometry, bone marrow CD34+ cells; assay type: cell-based; conditions: BM CD34+ cells, 10 μM each agent, 4 hours at 37° C. in SFEM, then 2 hours in SFEM
[4] = system: CXCR4 mRNA in mobilized peripheral blood CD34+ cells; assay: CXCR4 qPCR using the Applied Biosystems StepOnePlus, mobilized peripheral blood CD34+ cells; assay type: cell-based, human
Method: as §1, §2, §3, §4

[5] = system: CD34+ cells migrating towards SDF1; assay: SDF-1 transwell migration assay; assay type: cell-based, human; conditions: cells treated 4 hours at 37° C. with 10 μM, 50 ng/mL SDF1 in lower chamber, 2.5 hours; listed as dmPGE2
Method: Transwell migration assays were performed using 96-well chemotaxis chambers, […] pore size polycarbonate membrane (Corning Inc., Corning, N.Y.) in accordance with manufacturer's instructions. Briefly, CD34^+ cells were then treated for 4 hours at 37° C. with 16,16-dimethyl PGE2 (dmPGE2), dmPGE2 and glucocorticoid, or DMSO control at a concentration of 10 μM in StemSpan® media (Stem Cell Technology, Vancouver, Canada). The cells were then washed by centrifugation (300×g for 10 minutes) and resuspended in transwell assay buffer (Phenol Red Free RPMI media (Mediatech), 0.5% lipid free BSA (Sigma-Aldrich) at a concentration of 40,000-60,000 cells/75 μl.
To test the duration of the treatment effects, one portion of treated cells was washed by centrifugation (300×g for 10 minutes) and resuspended in StemSpan® media for 4 hours at 37° C. without dmPGE2, glucocorticoids, or DMSO and then washed again by centrifugation (300×g for 10 minutes) and resuspended in transwell assay buffer (Phenol Red Free RPMI media (Mediatech), 0.5% lipid free BSA (Sigma-Aldrich) at a concentration of 40,000-60,000 cells/75 μl.
Seventy-five μl of cell suspension was added to the upper chamber of the plate, while 235 μl of transwell assay media containing 0 or 50 ng/ml SDF1α (R&D system, Minneapolis, Minn.) was added to the bottom well. […]

## CCCCC(C)(C)[C@H](O)/C=C/[C@H]1[C@H](O)CC(=O)[C@@H]1C/C=C\CCCC(=O)O [16,16-dimethyl PGE2]
[1]
  increase in CXCR4 mRNA expression: 22 fold
[2]; cord blood CD34+ cells, 10 μM, 2 and 4 hours at 37° C. in SFEM, compared to DMSO treated cells
  CXCR4 RNA expression: increase
[2]; cord blood derived CD34+ cells, 4 hour treatment in SFEM, 10 μM each agent, against vehicle only sample
  increase in CXCR4 mRNA expression: 22 fold
[3]
  increase in the level of CXCR4 protein expression: 12 fold
[4]; CD34+ cells from mobilized peripheral blood, 4 hour treatment in SFEM, 10 μM each agent, against vehicle only sample
  increase in CXCR4 mRNA expression: 27 fold
[4]; mPB CD34+ cells, 10 μM, 2 and 4 hours at 37° C. in SFEM, compared to DMSO treated cells
  CXCR4 RNA expression: increase
[5]
  SDF1-driven cell migration (% of cells added), words: increased SDF1-driven cell migration compared to the DMSO control
